Paper PMC4869338 (Malaria Journal, 2016)
pIC50: −log10 of the molar value. Values joined by “and” are separate entries in the source; they are usually repeats but may differ in a detail not shown here. Equal entries are not always repeated. “Also recorded” adds a separate entry of the source. Where two headings read alike, the source gives them in different places.

Key:
[1] = humans; cited from earlier work
[2] = target: T1, Recombinant human CYP 2D6 (Homo sapiens, UniProt P10635); experiment: biochemical
T1 sequence (P10635 whole entry): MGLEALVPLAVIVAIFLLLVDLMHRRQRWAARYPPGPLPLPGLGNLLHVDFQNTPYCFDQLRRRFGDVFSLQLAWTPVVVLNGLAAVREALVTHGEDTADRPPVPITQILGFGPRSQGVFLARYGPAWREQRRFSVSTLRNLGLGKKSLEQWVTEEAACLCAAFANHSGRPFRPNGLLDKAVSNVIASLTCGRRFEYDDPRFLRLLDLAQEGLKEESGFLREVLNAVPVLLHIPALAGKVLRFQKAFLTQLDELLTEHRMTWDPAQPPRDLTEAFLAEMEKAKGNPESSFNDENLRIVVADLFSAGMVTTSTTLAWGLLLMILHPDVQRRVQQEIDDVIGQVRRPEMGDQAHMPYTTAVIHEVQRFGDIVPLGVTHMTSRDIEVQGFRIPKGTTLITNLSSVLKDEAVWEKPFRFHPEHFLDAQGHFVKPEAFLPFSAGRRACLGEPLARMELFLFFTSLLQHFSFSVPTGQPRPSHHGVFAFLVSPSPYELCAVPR
Procedure: The samples were centrifuged at 15,700×g at 4 °C for 10 min, supernatants collected and analysed by liquid chromatography/tandem mass spectrometry (LC–MS/MS).
Analyte peaks were detected and quantified using a TSQ Quantum triple quadrupole mass spectrometer (Thermo Fisher Scientific, Waltham, MA, USA). Mass spectrometry conditions were optimized for each analyte (see Additional file 1 for masses and ion transitions). […] Samples were analysed with electrospray ionization in positive ion mode (source temperature 350 °C) by selected reaction monitoring at a collision pressure of 1.0 mTorr. Analyte peaks were detected and quantified using the Xcalibur software package.

[3] = cited from earlier work
[4] = tested on: CYP2D6; details: cited from earlier work
[5] = tested on: CYP3A4; details: cited from earlier work
[6] = tested on: CYP 2D6; details: in vivo; cited from earlier work
[7] = tested on: CYP2C19; details: cited from earlier work
[8] = tested on: Plasmodium berghei sporozoites
Text: Drug suspensions were made and transferred to a 20-ml bottle, drawn into a 1-ml syringe, and delivered via oral feeder (18 gauge) to the designated recipient. […] Both liver and blood stages of P. berghei infections were monitored using the in vivo imaging system (IVIS) and flow cytometry as described in [29].

[9] = tested on: CYP1A2; design: method as in PMID 18691982; details: cited from earlier work
[10] = tested on: CYP2C9; design: method as in PMID 18691982; details: cited from earlier work
[11] = cited from earlier work; remark: listed apart in the source
[12] = Mouse oral pharmacokinetics of primaquine and 5,6-orthoquinone with and without fluoxetine; details: mice; oral primaquine 20 mg/kg; fluoxetine 4 mg/kg/day for 3 days
Procedure: Analyte peaks were detected and quantified using a TSQ Quantum triple quadrupole mass spectrometer (Thermo Fisher Scientific, Waltham, MA, USA). […] Chromatographic separations were achieved using a Waters XTerra MS C18 (2.1 × 50 mm, 3.5 μm) column (Milford, MA, USA) with a Phenomenex (4 × 20 mm, 3.5 µm) guard column (Torrance, CA, USA) at a flow rate of 0.35 ml/min. A 7-min linear gradient from 5 to 95 % acetonitrile (0.1 % formic acid) was utilized. Samples were analysed with electrospray ionization in positive ion mode (source temperature 350 °C) by selected reaction monitoring at a collision pressure of 1.0 mTorr. Analyte peaks were detected and quantified using the Xcalibur software package.
Briefly, male, 9–12-weeks old, wild-type, C57BL/6 mice (Taconic Biosciences, Germantown, NY, USA) were used for pharmacokinetic evaluations. On arrival, animals were acclimated for 7 days in quarantine. The animals were housed in a cage maintained at a temperature range of 18–26 °C, 34–68 % relative humidity and a 12-h light/dark cycle. Food and water were provided ad libitum during quarantine and throughout the study. The animals were fed a standard rodent maintenance diet.
Pharmacokinetic studies were performed using oral administration. […] For each timepoint, animals were euthanized and plasma and liver samples collected. […] Supernatant was collected and analysed by LC–MS/MS analyses.

[13] = target: T1, Recombinant human CYP 2D6; details: sixty-minute incubation; previously reported; cited from earlier work
[14] = tested on: primary human hepatocytes; details: 240-min incubation; previously reported; cited from earlier work
[15] = tested on: primary human hepatocytes; experiment: Primaquine metabolism in pooled primary human hepatocytes pre-treated with antidepressants; format: in vitro ADME; details: antidepressant 10 μM pre-treatment 15 min; primaquine 1 μM; 4-h incubation
Procedure: Cryopreserved, pooled, human, primary hepatocytes were flash thawed in a 37 °C bath for 1 min. One vial of the thawed hepatocytes (5 million cells/vial) was added to 40 ml of pre-warmed thawing buffer, mixed thoroughly by gentle pipetting, and centrifuged at 72×g for 6 min. The supernatant was then aspirated and the pellet resuspended in hepatocyte incubation buffer (InVitroGRO HI media, BioreclamationIVT, Baltimore, MD, USA). The hepatocytes were then seeded onto 12-well culture plates, approximately 7 × 10^5 hepatocytes/ml per well, and incubated in a humidified 5 % CO2/95 % air incubator for 30 min prior to the addition of compounds.
All reactions were stopped by adding an equal volume of acetonitrile. […] The supernatant was collected and 200 μl of sample was loaded on to a 96-well LC–MS/MS plate for analysis. Samples were analysed immediately after sample collection.

pIC50 [2] | Compound | Enzymes involved in biotransformation [3] | Enzymes inhibited by antidepressant: CYP2D6 [4] | Enzymes inhibited by antidepressant: CYP3A4 [5] | Enzymes inhibited by antidepressant: CYP2C9 [10] | also measured
 | CCN(CC)CCCC(C)Nc1ccnc2cc(Cl)ccc12 (stereo not drawn) [chloroquine] |  |  |  |  | primaquine exposure on co-administration [1]: significantly higher primaquine exposure
5.03 | CN(C)CCCC1(c2ccc(F)cc2)OCc2cc(C#N)ccc21 (stereo not drawn) [citalopram] | CYP2C19, CYP2D6, and CYP3A4 | CYP2D6 (weak) |  |  | 
~4.03 and 4.03 | CN(C)CC(c1ccc(O)cc1)C1(O)CCCCC1 (stereo not drawn) [desvenlafaxine] |  |  | CYP3A4 (weak) |  | 
5.13 | CN(C)CCC[C@@]1(c2ccc(F)cc2)OCc2cc(C#N)ccc21 [escitalopram] | CYP2C19, CYP2D6, and CYP3A4 | CYP2D6 (weak) |  |  | 
 | CNCCC(Oc1ccc(C(F)(F)F)cc1)c1ccccc1 (stereo not drawn) [fluoxetine] | CYP2D6, CYP2C9, CYP2C19, and CYP3A4 | strong | weak to moderate | moderate | change of CYP 2D6 phenotype of human subjects [6]: from extensive to poor metabolizers; Enzymes inhibited by antidepressant: CYP2C19 [7]: CYP2D6 (strong), CYP2C9 (moderate), CYP2C19, (weak to moderate), CYP3A4 (weak to moderate), CYP1A2 (weak); effect of fluoxetine co-administration on primaquine anti-malarial efficacy ([8]; fluoxetine 4 mg/kg/day for 5 days with primaquine 20 mg/kg/day for 3 days): reduced primaquine anti-malarial efficacy; also recorded: negatively impacted primaquine efficacy; Enzymes inhibited by antidepressant: CYP1A2 [9]: weak; elimination half-life [11]: long
 | NCCC(Oc1ccc(C(F)(F)F)cc1)c1ccccc1 (stereo not drawn) [nor-fluoxetine] |  |  |  |  | CYP 2D6 inhibition by major metabolite of fluoxetine ([4]; no reference given): potent CYP 2D6 inhibitor; elimination half-life ([11]; in vivo): long
 | Fc1ccc([C@@H]2CCNC[C@H]2COc2ccc3c(c2)OCO3)cc1 [paroxetine] | CYP2D6 and CYP3A4 | CYP2D6 (strong), CYP1A2 (weak), CYP2C9 (weak), CYP2C19 (weak), CYP3A4 (weak) | CYP2D6 (strong), CYP1A2 (weak), CYP2C9 (weak), CYP2C19 (weak), CYP3A4 (weak) | CYP2D6 (strong), CYP1A2 (weak), CYP2C9 (weak), CYP2C19 (weak), CYP3A4 (weak) | Enzymes inhibited by antidepressant: CYP2C19 [7]: CYP2D6 (strong), CYP1A2 (weak), CYP2C9 (weak), CYP2C19 (weak), CYP3A4 (weak); Enzymes inhibited by antidepressant: CYP1A2 [9]: CYP2D6 (strong), CYP1A2 (weak), CYP2C9 (weak), CYP2C19 (weak), CYP3A4 (weak)
 | COc1cc(NC(C)CCCN)c2ncccc2c1 (stereo not drawn) [primaquine] |  |  |  |  | pharmacokinetics of parent primaquine upon co-administration with fluoxetine [12]: not drastically altered; blood stage parasitaemia status throughout the 31-day experiment ([8]; flow cytometry, P. berghei infected mice): parasitaemia-free; primaquine metabolism signal by CYP 2D6 [13]: > 80%; primaquine metabolism signal in hepatocytes [14]: ~ 40%
5.36 | CN[C@H]1CC[C@@H](c2ccc(Cl)c(Cl)c2)c2ccccc21 [sertraline] | CYP2C9, CYP2C19, CYP2D6, and CYP3A4 |  |  | CYP2D6 (weak to moderate), CYP1A2 (weak), CYP2C9 (weak), CYP2C19 (weak), CYP3A4 (weak) | 

Compound | pIC50 [2] | Enzymes involved in biotransformation [3] | Enzymes inhibited by antidepressant: CYP2D6 [4] | Enzymes inhibited by antidepressant: CYP3A4 [5] | Enzymes inhibited by antidepressant: CYP2C9 [10] | also measured
COc1ccc(C(CN(C)C)C2(O)CCCCC2)cc1 (stereo not drawn) [venlafaxine] | 4.72 |  | CYP2D6 (weak) |  |  | inhibition of primaquine metabolism in hepatocytes [15]: no inhibition of primaquine metabolism
